Measured values reported in ChEMBL document CHEMBL1201862, “PubChem BioAssay data set” (2004).
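Protocol summary: plate cells (96-well), add compound at 5 concentrations, incubate 48 h, interpolate endpoints linearly. GI50 = concentration required for 50% inhibition of growth.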 Active and inactive are the calls of the source. Cut-off read from the data, not from the text of the source: active = GI50 up to about 1.1 µM and inactive = higher.

Tests used:
Assay in all cases: NCI tumour cell line growth inhibition, 48 h
[1] = system: SR
[2] = system: HT-29
[3] = system: HCT-116
[4] = system: UO-31
[5] = system: A549
[6] = system: OVCAR-8
[7] = system: XF498
[8] = system: COLO 205
[9] = system: KM12
[10] = system: SK-MEL-2
[11] = system: DLD-1
[12] = system: SNB-19
[13] = system: SN12C
[14] = system: U-251
[15] = system: NCI-H23
[16] = system: HCC 2998
[17] = system: TK-10
[18] = system: 786-0
[19] = system: K562
[20] = system: SK-MEL-28
[21] = system: OVCAR-4
[22] = system: NCI-H226
[23] = system: SNB-78
[24] = system: HOP-18
[25] = system: SF-539
[26] = system: SK-OV-3
[27] = system: RXF 393
[28] = system: DMS-273
[29] = system: LOX IMVI
[30] = system: RPMI-8226
[31] = system: KM-20L2
[32] = system: HOP-62
[33] = system: SW-620
[34] = system: EKVX
[35] = system: SF-295
[36] = system: OVCAR-3
[37] = system: HOP-92
[38] = system: UACC-62
[39] = system: SF-268
[40] = system: NCI-H460
[41] = system: DMS-114
[42] = system: CCRF-CEM
[43] = system: M14
[44] = system: OVCAR-5
[45] = system: M19-MEL
[46] = system: SK-MEL-5
[47] = system: CAKI-1
[48] = system: NCI-H522
[49] = system: MOLT-4
[50] = system: UACC-257
[51] = system: ACHN
[52] = system: LXFL 529
[53] = system: HL-60
[54] = system: IGROV-1
[55] = system: A498
[56] = system: HCT-15
[57] = system: SNB-75
[58] = system: Malme-3M

Measured: GI50

O=C(OC[C@H]1O[C@@H](OC(=O)c2cc(O)c(O)c(O)c2)[C@H](OC(=O)c2cc(O)c(O)c(O)c2)[C@@H](OC(=O)c2cc(O)c(O)c(O)c2)[C@@H]1OC(=O)c1cc(O)c(O)c(O)c1)c1cc(O)c(O)c(O)c1 [PENTAGALLOYL GLUCOSE]
5.21 µM: [56]
inactive: [1] 4.13 µM | [2] 6.92 µM | [3] 5.11 µM | [4] 5.79 µM | [5] 3.54 µM | [6] 5.22 µM | [7] 4.85 µM | [8] 4.98 µM | [9] 2.34 µM | [10] 10.7 µM | [11] 7 µM | [12] 4.88 µM | [13] 11.9 µM | [14] 5.33 µM | [15] 2.16 µM | [16] 3.21 µM | [17] 4.88 µM | [18] 4.99 µM | [19] 47.2 µM | [20] 15.3 µM | [21] 8.91 µM | [22] 1.49 µM | [23] 9.51 µM | [24] 36.6 µM | [25] 2.49 µM | [26] 6.17 µM | [27] 7.73 µM | [28] 1.46 µM | [29] 1.72 µM | [30] 2.76 µM | [31] 4.27 µM | [32] 3.89 µM | [33] 6 µM | [34] 6.04 µM | [35] 3.92 µM | [36] 3.78 µM | [37] 5.58 µM | [38] 2.26 µM | [39] 4.57 µM | [40] 3.27 µM | [41] 4.21 µM | [42] 3.33 µM | [43] 7.23 µM | [44] 7.94 µM | [45] 9.14 µM | [46] 11.3 µM | [47] 7.67 µM | [48] 3.46 µM | [49] 3 µM | [50] 14.9 µM | [51] 3.89 µM | [52] 11.4 µM | [53] 3.65 µM | [54] 5.73 µM | [55] 6.32 µM

CC1=NN(C(=O)CC(=O)N(C(=O)c2ccccc2Cl)c2ccc(C)cc2)C(=O)C1/N=N/c1ccc([N+](=O)[O-])cc1 (stereo not drawn)
inactive: [1] > 100 µM | [2] > 63.4 µM | [3] 17.7 µM | [4] 44 µM | [5] 34.1 µM | [57] > 43.6 µM | [6] 27.9 µM | [58] > 100 µM | [7] > 100 µM | [8] > 43.6 µM | [9] > 65.5 µM | [10] > 100 µM | [11] > 45.9 µM | [12] 53.1 µM | [13] > 100 µM | [14] 19.6 µM | [15] 47.3 µM | [16] > 100 µM | [17] 49.5 µM | [18] 29 µM | [19] > 53.5 µM | [20] > 100 µM | [21] 67.9 µM | [22] > 76 µM | [23] 57.5 µM | [24] > 62.8 µM | [25] 23.7 µM | [26] 31.8 µM | [27] 23.4 µM | [28] 48.9 µM | [29] 23.9 µM | [30] > 50.4 µM | [31] > 55.6 µM | [32] 53.5 µM | [33] > 39.2 µM | [34] > 72.9 µM | [35] 58.5 µM | [36] > 64.7 µM | [37] 36.6 µM | [38] 21.6 µM | [39] 44.6 µM | [40] > 47.3 µM | [41] > 42.8 µM | [42] > 49.8 µM | [43] > 96.2 µM | [44] > 46.1 µM | [46] 99.1 µM | [47] > 100 µM | [48] > 100 µM | [49] > 100 µM | [50] > 78.3 µM | [51] > 53.7 µM | [52] 49.4 µM | [53] > 51.9 µM | [54] 56.2 µM | [55] > 58.5 µM
> 43.8 µM: [56]
